Assay results as given in paper PMC5711939, “The rumen microbiome: an underexplored resource for novel antimicrobial discovery” (NPJ Biofilms and Microbiomes, 2017).
In brackets after ≈: the same amount, converted by molar mass. Where two headings read alike, the source gives them in different places. Ends that are not written are not given here.

Columns and labels:
E. coli K12 [1] = assay: Time kill kinetics; assay type: cell-based, Escherichia coli; conditions: at 10 min
Method: Assessment of the bactericidal activity of peptides and comparator antibiotics was performed as previously described[39] using exponential-phase cultures of pathogens grown in MHB ([…]). Peptides were added at concentrations 3 times their MIC values. Experiments were performed in quadruplicates, and CFU/ml was calculated at different time points after over overnight incubation.

P. aeruginosa (CF) = assay: microbe, parasite or virus in culture; conditions: Pseudomonas aeruginosa, cation adjusted MHB, 18–24 h
Method: (§1) Peptides dissolved in sterile distilled water and comparator antibiotics dissolved in the appropriate solvents[38] were added to sterile U-bottom polypropylene 96-well microplates at desired concentrations.

C. coli = test system: C. coli
Method: as §1

E. coli K12 [2] = assay: MIC, broth microdilution; assay type: cell-based, Escherichia coli; conditions: strain K12; cation adjusted MHB, 18–24 h
Method: as §1

S. aureus = assay: microbe, parasite or virus in culture
Method: as §1

[3] = test system: List. monocytogenes NCTC 11994; assay: microbe, parasite or virus in culture; conditions: NCTC 11994
Method: as §1

C. jejuni = assay: microbe, parasite or virus in culture
Method: as §1

K. pneumoniae = assay: microbe, parasite or virus in culture
Method: as §1

Ent. faecalis JH2-2 = assay: microbe, parasite or virus in culture
Method: as §1

Sal. typhimurium SL1344 = assay: microbe, parasite or virus in culture
Method: as §1

[4] = strain RN4220, Sensitive, cation adjusted MHB, 18–24 h

| Molecule | Bactericidal activity (reduction in viable count) (E. coli K12 [1]) [log10 CFU/ml] | MIC (P. aeruginosa (CF); strain AMT0060) [µg/mL] | MIC (P. aeruginosa (CF); strain C3719) [µg/mL] | MIC (P. aeruginosa (CF); strain LESB58) [µg/mL] | MIC (C. coli) [µg/mL] | MIC (E. coli K12 [2]) [µg/mL] | MIC (S. aureus) [µg/mL] | MIC (S. aureus; [4]) [µg/mL] | MIC [3] [µg/mL] | MIC (C. jejuni) [µg/mL] | MIC (K. pneumoniae) [µg/mL] | MIC (Ent. faecalis JH2-2) [µg/mL] | MIC (Sal. typhimurium SL1344) [µg/mL] |
| --- | --- | --- | --- | --- | --- | --- | --- | --- | --- | --- | --- | --- | --- |
| Polymyxin B | > 4 | – | – | – | – | – | – | – | – | – | – | – | – |
| C[C@H]1COc2c(N3CCN(C)CC3)c(F)cc3c(=O)c(C(=O)O)cn1c23 [Lev, Levofloxacin, reference compound] | – | 0.06 (≈ 0.166 µM) | < 0.03 | 0.06 (≈ 0.166 µM) | – | – | – | – | – | – | – | – | – |
| RSITRPVLVRRRWRVRPVF-NH2 [P10] | – | – | – | – | >128 | 256 | >128 | 256 | 512 | >128 | >128 | 512 | 64 |
| AWRWKAFRNCWRVRSSSL-NH2 [P8] | – | – | – | – | >128 | 64 | – | 64 | 64 | >128 | – | 64 | 32 |
| TMSLRFWRWKVR-NH2 [P5] | – | – | – | – | 128 | 64 | – | 64 | 64 | 128 | – | 64 | 64 |
| GTAWRWHYRARS-NH2 [P15a] | – | – | – | – | 128 | – | >128 | – | – | 128 | >128 | – | – |
| SIKILKIYFIQGKRHWSF-NH2 (C-terminus assumed) [P11] | – | – | – | – | >128 | – | – | – | 256 | >128 | – | 256 | 512 |
